Data as given in ChEMBL document CHEMBL1128126, “Inhibitors of human leukocyte elastase. 2.1 synthesis and sar of benzisothiazolinylmethyl aryl ethers” (Bioorg Med Chem Lett, 1995).

Experiments:
[1] = target: T1, Neutrophil elastase (Homo sapiens, UniProt P08246); experiment: Binding affinity for human leukocyte elastase (HLE); Kreact/Kinact
T1 sequence (P08246 whole entry): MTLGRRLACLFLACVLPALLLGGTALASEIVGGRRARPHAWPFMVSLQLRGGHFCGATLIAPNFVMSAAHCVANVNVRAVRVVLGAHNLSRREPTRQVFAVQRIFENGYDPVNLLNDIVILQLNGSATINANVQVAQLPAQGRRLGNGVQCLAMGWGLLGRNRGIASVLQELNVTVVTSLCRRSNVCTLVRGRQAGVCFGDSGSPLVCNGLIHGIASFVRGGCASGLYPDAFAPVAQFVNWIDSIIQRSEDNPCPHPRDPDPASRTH

[2] = target: T2, Neutrophil elastase (Homo sapiens) (UniProt P08246)
T2 sequence (whole entry): T1 sequence (P08246 whole entry)
Description: Inhibition of human leukocyte elastase (HLE)

SMILES	Ki [1]	K inact [2]
CC(C)c1cccc2c1C(=O)N(COc1c(Cl)cccc1Cl)S2(=O)=O	> 100 nM	
CC(C)c1cccc2c1C(=O)N(COc1cccc(C(=O)NCCN3CCOCC3)c1)S2(=O)=O	> 100 nM	
CC(C)c1cccc2c1C(=O)N(COc1cccc(C(=O)OCCN3CCOCC3)c1)S2(=O)=O	> 1000 nM	
CO[C@H]1C(=O)N2C(C(=O)N3CCC[C@H]3C(=O)O)=C(COC(C)=O)CS(=O)(=O)[C@H]12	2.2 nM	3700 M⁻¹ s⁻¹
